Values quoted from earlier work in article PMC9299415 (Molecular Neurobiology, 2022).

Key:
SARS-CoV-2 = conditions: rhesus macaque model, ref [18]

SMILES: Oc1ccc2[nH]ccc2c1 [5-HI, 5-hydroxyindole]
- potentiation efficacy compared with PNU-120596 (α7 nAChR): lower efficacy than PNU-120596
- recovery of receptors from desensitization (α7 nAChR): does not produce significant recovery of receptors from desensitization

SMILES: CCN1C[C@]2(COC(=O)c3ccccc3N3C(=O)C[C@H](C)C3=O)CC[C@H](OC)[C@@]34[C@@H]5C[C@H]6[C@H](OC)[C@@H]5[C@](O)(C[C@@H]6OC)[C@@](O)([C@@H](OC)[C@H]23)[C@@H]14 [MLA, methyllycaconitine]
- agonist/antagonist type at α7 (α7 nAChR): reversible competitive α7 antagonist

SMILES: COc1cc(OC)c(NC(=O)Nc2cc(C)on2)cc1Cl [PNU-120596, N-(5-Chloro-2,4-dimethoxyphenyl)-N’-(5-methyl-3-isoxazolyl)-urea]
- channel activation by PNU-120596 by itself (α7 nAChR): cannot induce channel activation

SMILES: c1cnc2cc3c(cc2n1)[C@@H]1CNC[C@H]3C1 [varenicline]
- agonist/antagonist type at α7 (α7 nAChR): full agonist
- infectivity and disease progression (SARS-CoV-2): reduces infectivity and disease progression
